Assay results taken from US10143700B2, “Nanoparticle formulations for delivering multiple therapeutic agents” (Amrita Vishwa Vidyapeetham University, priority 2013, dated 2018).

What was measured:
[1] = tested on: HepG2 cells; assay: Annexin V/PI apoptosis assay (confocal imaging and flow cytometry); type: cell-based; settings: for apoptosis (apoptotic cells by flow cytometry): 5 μM sorafenib and/or 0.5 μM Dox
Procedure: Apoptosis studies: In the next step, the mode of cell death using Annexin V/PI apoptosis assay was investigated. […] The apoptotic cells using flow cytometry were also quantified. […] Even after combining both the drugs (5 μM sorafenib (5S) with 0.5 μM Dox (0.5D)), a maximum of only ˜60% apoptosis was registered (FIG. 15D). In contrast, as separate nanoformulations, the nano-shell (containing 5 μM sorafenib, (5AST)) (FIG. 15F), and the nano-core (containing 0.5 μM Dox, (0.5PD)) (FIG. 15G) have shown slight improvement in apoptosis (˜39% by shell, and ˜61% by core). After combining the two in a core-shell targeted fashion, excellent apoptosis was registered in ˜91% cells (FIG. 15H).

[2] = tested on: TfR; assay: Transferrin receptor expression in HepG2 cells by flow cytometry; type: cell-based
Procedure: Transferrin receptor expression and cellular uptake: In the next step, the expression of TfR in HepG2 cells was studied using flow cytometry. […] After creating an iron deficient microenvironment by treating the cells with 100 μM DFO, the number of the TfR-expressing cells increased to ˜89% (FIG. 13C). […] Following that, intracellular uptake of the core-shell nanoparticles in cancer cells was investigated. […] After creating iron-deficient microenvironment, the uptake was further increased to ˜94% (FIG. 13G) due to the increase in the number of TfRexpressing cells. Upon addition of iron-loaded transferrin, the uptake was dropped to ˜69% due to the saturation of TfR expression in these cells (FIG. 13H).

## COc1cccc2c1C(=O)c1c(O)c3c(c(O)c1C2=O)C[C@@](O)(C(=O)CO)C[C@@H]3O[C@H]1C[C@H](N)[C@H](O)[C@H](C)O1 [Dox, doxorubicin]
[1]
  apoptosis (apoptotic cells by flow cytometry): ~53%

## holotransferrin: iron-loaded transferrin
[2]; HepG2 cells, upon addition of iron-loaded transferrin (holotransferrin)
  number of TfR-expressing cells: ~42%

## CNC(=O)c1cc(Oc2ccc(NC(=O)Nc3ccc(Cl)c(C(F)(F)F)c3)cc2)ccn1 [sorafenib]
[1]
  apoptosis (apoptotic cells by flow cytometry): ~38%

## CC(=O)N(O)CCCCCNC(=O)CCC(=O)N(O)CCCCCNC(=O)CCC(=O)N(O)CCCCCN [DFO]
[2]; HepG2 cells treated with 100 μM DFO (iron deficient microenvironment), ~76% before iron chelation
  number of TfR-expressing cells: ~89%
[1]; pretreatment with 100 μM DFO, FIG. 15E
  viability of TfR overexpressing cells: did not affect the viability
